Experimental findings from PMC12123458, “Unraveling Small Molecule-Mediated Sirtuin 3 Activation at a Distinct Binding Site for Cardioprotective Therapies” (ACS Central Science, 2025) are described below.

Assay [1] deals with T1, hSirt3 (Homo sapiens, UniProt Q9NTG7).
T1 sequence (Q9NTG7 1-399): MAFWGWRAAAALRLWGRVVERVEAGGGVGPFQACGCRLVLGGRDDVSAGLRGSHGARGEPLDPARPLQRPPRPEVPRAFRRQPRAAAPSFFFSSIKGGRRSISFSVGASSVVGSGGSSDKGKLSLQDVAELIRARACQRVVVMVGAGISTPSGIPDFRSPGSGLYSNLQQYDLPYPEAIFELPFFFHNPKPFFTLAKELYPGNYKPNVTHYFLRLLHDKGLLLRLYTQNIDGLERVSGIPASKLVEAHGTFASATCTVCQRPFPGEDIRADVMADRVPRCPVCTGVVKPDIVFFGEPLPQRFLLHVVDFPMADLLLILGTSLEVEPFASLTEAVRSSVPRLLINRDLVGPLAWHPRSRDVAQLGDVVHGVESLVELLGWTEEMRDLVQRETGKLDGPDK
Nature of the assay: Mass spectrometry-based deacetylation assay, substrate […]-Ac. Format: biochemical. Conditions: substrate GELLEAIK-Ac; SKLB-11A 100 μM.

The target of assay [2] is T2, SIRT3 (Homo sapiens, UniProt Q9NTG7).
T2 construct: purchased Enzo Life Sciences BML-AK557-0001
T2 sequence (Q9NTG7 1-399): T1 sequence (Q9NTG7 1-399)
Nature of the assay: SPR binding to immobilized SIRT3. Conditions: 25 °C, PBST pH 7.4. Here is the method:
The affinity of SKLB-11A for SIRT1, SIRT2, SIRT3, SIRT5, and SIRT6 was determined using a Reichert 4SPR system (Reichert Technologies, Depew, NY, USA). Proteins at 200 μg/mL were immobilized on a dextran-coated sensor chip (13206066) until reaching ≥12,000 response units (RUs). A dual-flow channel setup was used, reserving one channel for blank controls. SKLB-11A was introduced at varying concentrations for binding and subsequent dissociation kinetic analysis. Data acquisition was at 25 °C utilizing a PBST running buffer (pH 7.4). The equilibrium dissociation constant (K d) was computed from steady-state affinity measurements using TraceDrawer software.

Assay [3] addresses T3, wild-type SIRT3 (Homo sapiens, UniProt Q9NTG7).
T3 sequence (Q9NTG7 1-399): T1 sequence (Q9NTG7 1-399)
Nature of the assay: BLI binding of SKLB-11A to wild-type SIRT3. The conditions noted are these: read-out: dissociation constant, wild-type SIRT3. Here is the method:
Binding kinetics of SIRT3 with various compounds were quantified using SSA biosensors on an Octet Red96 system (ForteBio). The assays occurred in 96-well plates, recording wavelength shifts in real-time. Ambient temperature was maintained at 25 °C, with plate agitation at 1000 rpm, and a reaction volume of 200 μL per well. SIRT3 protein and test compounds were prepared in phosphate-buffered saline (PBS, pH 7.4). Biosensors were equilibrated in PBS for 10 min before immobilizing SIRT3 (0.9 μg/mL) for 180 s, followed by a 120-s PBS wash. […] Data analysis was performed using ForteBio’s Octet RED software.
For orientation: BLI is a label-free optical method that tracks binding on a fibre tip over time.

Assay [4] addresses T4, SIRT2 (Homo sapiens, UniProt Q8IXJ6).
T4 sequence (Q8IXJ6 1-389): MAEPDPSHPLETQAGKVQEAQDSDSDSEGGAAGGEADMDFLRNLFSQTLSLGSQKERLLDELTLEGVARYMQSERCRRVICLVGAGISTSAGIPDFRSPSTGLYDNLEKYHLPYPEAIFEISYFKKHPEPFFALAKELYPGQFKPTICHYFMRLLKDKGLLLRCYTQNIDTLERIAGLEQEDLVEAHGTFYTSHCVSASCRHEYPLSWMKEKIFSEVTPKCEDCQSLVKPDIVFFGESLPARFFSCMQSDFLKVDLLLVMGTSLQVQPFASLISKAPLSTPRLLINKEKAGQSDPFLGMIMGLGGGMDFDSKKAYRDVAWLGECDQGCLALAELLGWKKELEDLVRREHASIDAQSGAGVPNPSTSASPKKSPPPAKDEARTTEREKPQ
The assay can be described thus: Coupled enzymatic assay, acetylated α-tubulin-K25 substrate. Type of assay: biochemical. The conditions noted are these: 100 μM. From the text: Additionally, we used surface plasmon resonance (SPR) to measure the binding of SKLB-11A to immobilized SIRT3. […] We next evaluated the selectivity of SKLB-11A for different SIRT family members. […] We next examined the functional specificity of SKLB-11A using coupled enzymatic assays with isoform-specific, physiologically relevant substrates: acetylated p53-K381 for SIRT1, acetylated α-tubulin-K25 for SIRT2, acetylated MnSOD-K122 for SIRT3, and succinylated CPS1-K537 for SIRT5 (Supplementary Table S3). […] Using Schrödinger molecular docking simulations, we assessed the binding interactions of SKLB-11A with SIRT isoforms.

Assay [5] deals with T5, SIRT1 (Rattus norvegicus, UniProt A0A0G2JZ79).
T5 construct: endogenous in cells; host or cells: H9c2
T5 sequence (A0A0G2JZ79 1-741): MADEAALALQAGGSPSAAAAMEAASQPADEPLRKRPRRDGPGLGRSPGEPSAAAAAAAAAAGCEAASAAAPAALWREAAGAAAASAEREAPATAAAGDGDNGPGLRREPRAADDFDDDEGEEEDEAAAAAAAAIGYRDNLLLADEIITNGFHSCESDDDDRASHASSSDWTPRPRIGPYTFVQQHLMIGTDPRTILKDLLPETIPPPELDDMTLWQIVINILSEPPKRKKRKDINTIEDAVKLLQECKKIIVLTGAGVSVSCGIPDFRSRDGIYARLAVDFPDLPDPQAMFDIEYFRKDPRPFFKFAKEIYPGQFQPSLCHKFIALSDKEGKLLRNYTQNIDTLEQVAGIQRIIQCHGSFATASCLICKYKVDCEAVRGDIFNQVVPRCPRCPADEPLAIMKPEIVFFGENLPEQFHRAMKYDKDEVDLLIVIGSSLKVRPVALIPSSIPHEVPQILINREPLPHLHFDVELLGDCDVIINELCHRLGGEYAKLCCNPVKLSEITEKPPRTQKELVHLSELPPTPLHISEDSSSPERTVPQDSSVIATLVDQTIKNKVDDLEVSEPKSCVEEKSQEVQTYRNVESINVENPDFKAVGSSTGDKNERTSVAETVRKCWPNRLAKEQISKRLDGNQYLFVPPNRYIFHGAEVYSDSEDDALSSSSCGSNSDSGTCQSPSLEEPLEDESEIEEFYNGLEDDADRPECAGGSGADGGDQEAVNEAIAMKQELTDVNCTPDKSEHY
Nature of the assay: CETSA of SIRT1 in H9c2 cells. Type of assay: cell-based.

`COC(=O)c1c(N)n(Cc2ccc(F)cc2)c2nc3ccccc3nc12` [SKLB-11A, Methyl 2-amino-1-(4-fluorobenzyl)-1H-pyrrolo[2,3-b]quinoxaline-3-carboxylate]: in assay [1], the “catalytic efficiency of SIRT3 deacetylation (MS assay)” value is “significantly increased the catalytic efficiency”. Besides, the Kd in assay [2] was 4.7 µM; in assay [3], 33.1 µM. For the same compound, in assay [4], the “effect on basal SIRT2 deacetylation activity” value is “no statistically significant effects”. Further, the “thermal stability of SIRT1 (CETSA)” value in assay [5] is on record as “little effect on the thermal stability”.
